Experimental data: ChEMBL document CHEMBL1132922, “Corticotropin releasing factor (CRF) receptor modulators: progress and opportunities for new therapeutic agents” (J Med Chem, 2000)
Residues, ends and D or L forms follow the SMILES beside them.

Experiments:
[1] = target: T1, Corticotropin-releasing factor receptor 1 (Homo sapiens, UniProt P34998); assay: Activity of peptidic agonists on corticotropin releasing factor receptor using agonist-stimulated adenylate cyclase assay; assay type: functional
T1 sequence (P34998 whole entry): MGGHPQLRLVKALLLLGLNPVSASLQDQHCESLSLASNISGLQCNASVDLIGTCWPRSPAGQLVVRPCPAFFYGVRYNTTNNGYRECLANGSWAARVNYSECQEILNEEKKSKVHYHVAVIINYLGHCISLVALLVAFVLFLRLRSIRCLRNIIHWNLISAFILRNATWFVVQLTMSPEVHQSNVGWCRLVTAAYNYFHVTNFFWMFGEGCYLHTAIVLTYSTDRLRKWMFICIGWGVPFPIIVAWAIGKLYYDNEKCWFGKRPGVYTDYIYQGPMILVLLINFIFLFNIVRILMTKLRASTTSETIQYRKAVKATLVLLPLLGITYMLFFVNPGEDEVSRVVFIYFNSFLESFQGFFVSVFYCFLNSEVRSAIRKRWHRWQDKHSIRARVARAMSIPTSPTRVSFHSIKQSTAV

[2] = target: T2, Corticotropin-releasing factor receptor 2 (Homo sapiens, UniProt Q13324); assay: Activity of peptidic agonists on h-CRF2-alpha receptor using agonist-stimulated adenylate cyclase assay; assay type: functional
T2 sequence (Q13324 whole entry): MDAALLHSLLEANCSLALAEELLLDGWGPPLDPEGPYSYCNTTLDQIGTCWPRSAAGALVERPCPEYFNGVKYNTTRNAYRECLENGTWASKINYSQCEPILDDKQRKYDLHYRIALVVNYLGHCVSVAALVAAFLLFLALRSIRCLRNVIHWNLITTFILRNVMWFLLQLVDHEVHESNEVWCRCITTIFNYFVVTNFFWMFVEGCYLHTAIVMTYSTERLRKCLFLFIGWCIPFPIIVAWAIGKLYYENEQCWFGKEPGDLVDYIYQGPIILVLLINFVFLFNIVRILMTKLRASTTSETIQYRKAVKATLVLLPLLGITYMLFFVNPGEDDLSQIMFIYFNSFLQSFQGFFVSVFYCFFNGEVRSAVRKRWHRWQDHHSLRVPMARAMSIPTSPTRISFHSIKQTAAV

[3] = target: T1, Corticotropin-releasing factor receptor 1; assay: Binding affinity of the receptor corticotropin releasing factor receptor with peptidic agonists
[4] = target: T2, Corticotropin-releasing factor receptor 2; assay: Binding affinity of the receptor h-CRF2-alpha with peptidic agonists
Rattus norvegicus [5] = species on record: Rattus norvegicus; assay: effective concentration used to stimulate the secretion of adenocorticotropic hormone(ACTH) in primary cultures of rat pituitary cells; assay type: functional, cell-based; conditions: Pituitary gland cell
[6] = Inhibition of ovine CRF stimulated adenylate cyclase assay in CHO-p5 cells; assay type: functional, cell-based; conditions: Ovis aries
[7] = target: T3, Corticotropin releasing factor receptor (Rattus norvegicus, UniProt P47866+P35353); assay: (§1) Compound was tested for the binding affinity to rat corticotropin releasing factor receptor; assay type: protein assay
[8] = target: T3, Corticotropin releasing factor receptor; assay: Compound was tested for the inhibition of binding of the radioligand, [125 I-Tyr0]-CRF to rat cerebral cortex membrane; assay type: tissue-based
[9] = target: T1, Corticotropin-releasing factor receptor 1; assay: Compound was tested for the binding affinity to human corticotropin releasing factor 1 (hCRF1) receptors.
Rattus norvegicus [10] = species on record: Rattus norvegicus; assay: 50% inhibitory concentration to antagonize Corticotropin releasing factor (CRF) stimulated adenylate cyclase; assay type: functional
Rattus norvegicus [11] = assay: Percent reduction in latency time in the dark compartment at 20 mg/kg was reported; assay type: functional
HEK293 = assay: Inhibition of h- CRF mediated increase in adenylate cyclase activity was evaluated in HEK293 cells; assay type: functional, cell-based; conditions: Homo sapiens
Rattus norvegicus [12] = assay: Minimum effective dose in rat […] anxiety test when administered perorally; assay type: functional; conditions: po, read-out: MED
Rattus norvegicus [13] = species on record: Rattus norvegicus; assay: Oral activity was evaluated in an rat situational anxiety test; assay type: functional
[14] = target: T1, Corticotropin-releasing factor receptor 1; assay: Compound was tested for the binding affinity to human corticotropin releasing factor 1 (hCRF1) receptors
[15] = target: T3, Corticotropin releasing factor receptor; assay: Inhibition of binding of the radioligand, [125 I-Tyr0]-CRF to rat cerebral cortex membrane; assay type: tissue-based
[16] = target: T3, Corticotropin releasing factor receptor; assay: as §1; assay type: protein assay; remark: listed apart in the source

## CC[C@H](C)[C@H](NC(=O)[C@H](CC(=O)O)NC(=O)[C@H](CC(C)C)NC(=O)[C@H](CC(C)C)NC(=O)[C@H](CCCCN)NC(=O)[C@H](CCCN=C(N)N)NC(=O)[C@H](CC(N)=O)NC(=O)[C@H](CO)NC(=O)[C@H](Cc1cnc[nH]1)NC(=O)[C@H](C)NC(=O)[C@H](CCC(N)=O)NC(=O)[C@H](CCC(N)=O)NC(=O)[C@H](C)NC(=O)[C@H](CC(C)C)NC(=O)[C@H](CCC(N)=O)NC(=O)[C@H](CC(=O)O)NC(=O)[C@H](C)NC(=O)[C@H](CCCCN)NC(=O)[C@@H](NC(=O)[C@H](CCSC)NC(=O)[C@H](CCC(=O)O)NC(=O)[C@H](CC(C)C)NC(=O)[C@@H](NC(=O)[C@H](CCC(=O)O)NC(=O)[C@H](CCCN=C(N)N)NC(=O)[C@H](CC(C)C)NC(=O)[C@H](CC(C)C)NC(=O)[C@H](Cc1cnc[nH]1)NC(=O)[C@H](Cc1ccccc1)NC(=O)[C@@H](NC(=O)[C@H](CC(C)C)NC(=O)[C@H](CC(=O)O)NC(=O)[C@H](CC(C)C)NC(=O)[C@H](CO)NC(=O)[C@@H](NC(=O)[C@@H]1CCCN1C(=O)[C@@H]1CCCN1C(=O)[C@H](CCC(=O)O)NC(=O)[C@H](CCC(N)=O)NC(=O)[C@@H](N)CO)[C@@H](C)CC)[C@@H](C)O)C(C)C)[C@@H](C)O)C(=O)N[C@@H](C)C(N)=O
[1]
  EC50: 9.7 nM
[2]
  EC50: 61.9 nM
[3]
  Ki: 7.16 nM
[4]
  Ki: 86.4 nM

## CC[C@H](C)[C@H](NC(=O)[C@@H](NC(=O)[C@H](CCC(=O)O)NC(=O)[C@H](CCSC)NC(=O)[C@H](CC(C)C)NC(=O)[C@H](CCCCN)NC(=O)[C@H](CCCN=C(N)N)NC(=O)[C@H](CC(N)=O)NC(=O)[C@H](CO)NC(=O)[C@H](Cc1c[nH]cn1)NC(=O)[C@H](C)NC(=O)[C@H](CCC(N)=O)NC(=O)[C@H](CCC(N)=O)NC(=O)[C@H](C)NC(=O)[C@H](CC(C)C)NC(=O)[C@H](CCC(N)=O)NC(=O)[C@H](CCC(=O)O)NC(=O)[C@H](C)NC(=O)[C@H](CCCN=C(N)N)NC(=O)[C@H](C)NC(=O)[C@H](CCSC)NC(=O)[C@H](CCC(=O)O)NC(=O)[C@H](CC(C)C)NC(=O)[C@@H](NC(=O)[C@H](CCC(=O)O)NC(=O)[C@H](CCCN=C(N)N)NC(=O)[C@H](CC(C)C)NC(=O)[C@H](CC(C)C)NC(=O)[C@H](Cc1c[nH]cn1)NC(=O)[C@H](Cc1ccccc1)NC(=O)[C@@H](NC(=O)[C@H](CC(C)C)NC(=O)[C@H](CC(=O)O)NC(=O)[C@H](CC(C)C)NC(=O)[C@H](CO)NC(=O)[C@@H](NC(=O)[C@@H]1CCCN1C(=O)[C@@H]1CCCN1C(=O)[C@H](CCC(=O)O)NC(=O)[C@H](CCC(=O)O)NC(=O)[C@@H](N)CO)[C@@H](C)CC)[C@@H](C)O)C(C)C)[C@@H](C)CC)C(N)=O
Rattus norvegicus [5]
  EC50: 0.2 nM

## CCCCN(CC)c1cc(C)nc2c(-c3ccc(Cl)cc3Cl)c(C)nn12
[6]
  IC50: 357 nM

## CCc1nc2c(c(C)nn2-c2ccc(C(C)C)cc2Br)n1Cc1ccccc1
[7]
  Ki: 4 nM

## CCN(c1nc(C)cc(N2CCC=C(c3ccccc3C)C2)n1)c1ccc(C(C)C)cc1SC
[8]
  IC50: 10 nM

## CCC(CC)n1nnc2c(N3CCc4cc(Cl)cc(Cl)c43)nc(C)cc21
[9]
  Ki: 1.3 nM

## CCCN(CCOC)c1cc(C)nc2c(-c3ccc(OC)c(OC)c3)c(C)nn12
[9]
  Ki: 13.7 nM

## CCN(c1nc(C)cc(N2CC=C(c3cccc(F)c3)CC2)n1)c1ccc(C(C)C)cc1SC
[8]
  IC50: 12.7 nM

## CCCN(c1nc(-c2ccc(Cl)cc2Cl)c(C)s1)c1cccc2ncccc12
[8]
  IC50: 80 nM

## CC[C@H](C)[C@H](NC(=O)[C@@H](NC(=O)[C@H](CC(=O)O)NC(=O)[C@H](CC(C)C)NC(=O)[C@H](CC(C)C)NC(=O)[C@H](CC(C)C)NC(=O)[C@H](CCCN=C(N)N)NC(=O)[C@H](CC(N)=O)NC(=O)[C@H](CC(N)=O)NC(=O)[C@H](C)NC(=O)[C@H](C)NC(=O)[C@H](CCC(N)=O)NC(=O)[C@H](CCC(N)=O)NC(=O)[C@H](CCCCN)NC(=O)[C@H](CCC(=O)O)NC(=O)[C@H](CCCCN)NC(=O)[C@H](CCC(=O)O)NC(=O)[C@H](CCC(N)=O)NC(=O)[C@H](CCCCN)NC(=O)[C@H](CCC(=O)O)NC(=O)[C@@H](NC(=O)[C@H](CCC(=O)O)NC(=O)[C@@H](NC(=O)[C@H](CCSC)NC(=O)[C@H](CCCCN)NC(=O)[C@H](CCCN=C(N)N)NC(=O)[C@H](CC(C)C)NC(=O)[C@H](CC(C)C)NC(=O)[C@H](CCC(=O)O)NC(=O)[C@H](CC(C)C)NC(=O)[C@H](CO)NC(=O)[C@H](CC(C)C)NC(=O)[C@H](CC(=O)O)NC(=O)[C@@H](NC(=O)[C@H](CO)NC(=O)[C@@H](NC(=O)[C@@H]1CCCN1C(=O)[C@@H]1CCCN1C(=O)CNC(=O)[C@@H](N)CCC(N)=O)[C@@H](C)CC)[C@@H](C)CC)[C@@H](C)CC)[C@@H](C)CC)[C@@H](C)O)C(N)=O
[1]
  EC50: 3.4 nM
[2]
  EC50: 1.4 nM
[3]
  Ki: 7.3 nM
[4]
  Ki: 2.73 nM

## Cc1cc(C)nc(N(C)c2ccccc2Br)n1
Rattus norvegicus [10]
  IC50: 20000 nM

## CCC(CC)Nc1cc(C)nc2c(-c3ccc(OC)cc3C)c(C)nn12
Rattus norvegicus [11]
  Reduction: 57%
HEK293
  IC50: 10000 nM
Rattus norvegicus [12]
  minimal effective dose: 1 mg/kg
Rattus norvegicus [13]
  ED50: 1 mg/kg
[14]
  Ki: 1 nM

## Cc1c(SSc2c(C)n(C)n(-c3ccc4ccccc4c3)c2=O)c(=O)n(-c2ccc3ccccc3c2)n1C
[15]
  IC50: 3300 nM
Rattus norvegicus [10]
  IC50: 1000 nM

## CCN(c1nc(C)cc(N2CC=C(c3cccc(F)c3)CC2)n1)c1ccc(C(C)C)cc1Br
[8]
  IC50: 22.1 nM

## CCCCC(CC)n1c(C)nc2c(-c3ccc(Cl)cc3Cl)ncnc21 (configuration not stated)
[7]
  Ki: 8.8 nM

## CC(=O)Sc1c(C)n(C)n(-c2ccccc2)c1=O
[15]
  IC50: 13700 nM
Rattus norvegicus [10]
  IC50: 2900 nM

## CC[C@H](C)[C@H](NC(=O)[C@H](CO)NC(=O)[C@H](CC(C)C)NC(=O)[C@H](CO)NC(=O)[C@@H]1CCCN1C(=O)[C@H](CC(N)=O)NC(=O)[C@@H](N)CC(=O)O)C(=O)N[C@@H](CC(=O)O)C(=O)N[C@@H](CC(C)C)C(=O)N[C@H](C(=O)N[C@@H](Cc1ccccc1)C(=O)N[C@@H](Cc1cnc[nH]1)C(=O)N[C@@H](CC(C)C)C(=O)N[C@@H](CC(C)C)C(=O)N[C@@H](CCCNC(=N)N)C(=O)N[C@H](C(=O)N[C@@H](CC(C)C)C(=O)N[C@@H](CC(C)C)C(=O)N[C@@H](CCC(=O)O)C(=O)N[C@@H](CC(C)C)C(=O)N[C@@H](C)C(=O)N[C@@H](CCCNC(=N)N)C(=O)N[C@H](C(=O)N[C@@H](CCC(N)=O)C(=O)N[C@@H](CO)C(=O)N[C@@H](CCC(N)=O)C(=O)N[C@@H](CCCNC(=N)N)C(=O)N[C@@H](CCC(=O)O)C(=O)N[C@@H](CCCNC(=N)N)C(=O)N[C@@H](C)C(=O)N[C@@H](CCC(=O)O)C(=O)N[C@@H](CCC(N)=O)C(=O)N[C@@H](CC(N)=O)C(=O)N[C@@H](CCCNC(=N)N)C(=O)N[C@H](C(=O)N[C@H](C(=O)N[C@@H](Cc1ccccc1)C(=O)N[C@@H](CC(=O)O)C(=O)N[C@@H](CO)C(=O)N[C@H](C(N)=O)C(C)C)[C@@H](C)CC)[C@@H](C)CC)[C@@H](C)O)[C@@H](C)O)[C@@H](C)O (H-DNPSLSIDLTFHLLRTLLELARTQSQRERAEQNRIIFDSV-NH2)
[1]
  EC50: 0.22 nM
[2]
  EC50: 0.32 nM
[3]
  Ki: 3.76 nM
[4]
  Ki: 3.6 nM

## CCCCN(CC)c1nc(C)nc2c1c(C)c(C)n2-c1c(C)cc(C)cc1C [ANTALARMIN]
[16]
  Ki: 1 nM

## H-NDDPPISIDLTFHLLRNMIEMARIENEREQAGLNRKYLDEV-NH2
[1]
  EC50: 6.3 nM
[2]
  EC50: 1.5 nM
[3]
  Ki: 1.07 nM
[4]
  Ki: 1.26 nM
